Laboratory results as given in article PMC4552634, “A New Set of Chemical Starting Points with Plasmodium falciparum Transmission-Blocking Potential for Antimalarial Drug Discovery” (PLoS ONE, 2015).
“And” between values parts separate entries of the source, which are not always exact repeats. Equal entries are not always repeated. Where two headings read alike, the source gives them in different places.

What was measured:
[1] = test system: P. falciparum stage V gametocytes; experiment: Gametocytocidal ATP bioluminescence assay (single point 5 μM and 1 μM, dose-response); assay type: cell-based, Plasmodium falciparum; details: for Ratio IC50 HepG2/IC50 P. falciparum: IC50 HepG2 divided by IC50 P. falciparum gametocytes
Description: Purified stage IV-V gametocytes were obtained as previously described [10]. Single point ATP bioluminescence assay and dose–response of positive hits was determined in accordance with the previously published protocol [10].

HepG2 cells = experiment: Cytotoxicity in HepG2 cells (intracellular ATP, ATPlite, 48 h); assay type: cell-based, human; details: HepG2 cells; IC50 per ratio column head; unit inferred
[2] = test system: P. falciparum asexual stages; details: asexual stages; TCAMS data; read-out: IC50 asexual; cited from earlier work
[3] = P. falciparum gametocytes, average, read-out: IC50 Pf Gametocytes average, IC50 (µM) average
[4] = sexual stages (gametocytes), dose-response, read-out: IC50 sexual

Structure (SMILES) | Ratio IC50 HepG2/IC50 P. falciparum [1] | IC50 [1, 3] | IC50 [1, 4] [µM] | IC50 (HepG2 cells) | IC50 [2] [nM]
COc1c(C2CCN(CCN3CCC(CNC(=O)c4ccc(-c5ccc(C#N)cc5)cc4)CC3)CC2)ccc2c1CCCC2 [TCMDC-138859] | 2.83 | 1.17 µM | 1.17 | 3300 nM | 455
CC1(C)CC(NCCCCCCCOc2ccc(OCc3ccccc3)cc2)CC(C)(C)N1 [TCMDC-138958] | 4.41 | 0.68 µM | – | 3000 nM | 827
Clc1ccc(OCCC2CCN(CCCCCCCN3CCC(CCOc4ccc(Cl)c(Cl)c4)CC3)CC2)cc1Cl [TCMDC-138967] | 6 and 5.59 | 0.7 µM and 0.47 µM | – | 4400 nM and 2600 nM | 624
O=C(NCCCCN1CCC(c2c[nH]c3ccc(-c4ccccc4)cc23)CC1)c1ccc(-c2ccccc2)cc1 [TCMDC-139064] | 5 | 1.83 µM | – | 9400 nM | 985
O=C(/C=C/c1ccc(Cl)c(Cl)c1)NCCCCCN1CCCC(CNS(=O)(=O)c2cccc(C(F)(F)F)c2)C1 (centres unmarked) [TCMDC-139597] | 0.4 | 8.63 µM | – | 3800 nM | 950
CC(Cc1ccc(CNC(=O)NCc2ccc(CC(C)NCCc3cccc(Cl)c3)cc2)cc1)NCCc1cccc(Cl)c1 (centres unmarked) [TCMDC-139648] | 7 | 0.61 µM | – | 4180 nM | 685
CC(=O)N(Cc1ccc(CC(C)NCCc2cccc(Cl)c2)cc1)Cc1ccc(CC(C)NCCc2cccc(Cl)c2)cc1 (centres unmarked) [TCMDC-139678] | 1.64 | 1.4 µM | – | 2300 nM | 783
COc1ccc(CCNC(C)Cc2ccc(C(=O)Nc3ccc(CC(C)NCCc4cccc(Cl)c4)cc3)cc2)cc1 (centres unmarked) [TCMDC-139750] | 4 | 0.62 µM | – | 2400 nM | 248
CC(CCCC(=O)Nc1ccc(CC(C)NCCc2cccc(Cl)c2)cc1)NCCc1cccc(Cl)c1 (centres unmarked) [TCMDC-139798] | 5.52 | 0.82 µM | 0.815 | 4500 nM | 625
CC(CCCCC(=O)Nc1ccc(CC(C)NCCc2cccc(Cl)c2)cc1)NCCc1cccc(Cl)c1 (centres unmarked) [TCMDC-139799] | 4 | 1.66 µM | 1.66 | 6590 nM | 1010
CCOc1ccccc1CCNC(C)Cc1ccc(C(=O)Nc2ccc(CC(C)NCCc3cccc(Cl)c3)cc2)cc1 (centres unmarked) [TCMDC-139805] | 5.71 | 0.61 µM | 0.613 | 3500 nM | 539
CCCCCCCN1CC[C@@H](CCCc2ccnc3ccc(OCC4CCCNC4)cc23)[C@@H](CC)C1 (some centres unmarked) [TCMDC-139816] | 14 | 0.3 µM | – | 4180 nM | 625
CCCCCCCN1CC[C@@H](CCCc2ccnc3ccc(OCCC4CCNCC4)cc23)[C@@H](CC)C1 [TCMDC-139819] | 11 | 0.42 µM | 0.415 | 4500 nM | 610
CC(Cc1ccc(COc2ccc(CC(CO)NCCc3cccc(Cl)c3)cc2)cc1)NCCc1cccc(Cl)c1 (centres unmarked) [TCMDC-139844] | 2.53 | 1.39 µM | 1.39 | 3500 nM | 821
Cc1oc(-c2ccc(Cl)cc2)cc1C(=O)NCCC1CCN(CCCCCNC(=O)/C=C/c2ccc(Cl)c(Cl)c2)CC1 [TCMDC-140009] | 0.755 | 5.43 µM | – | 4100 nM | 446
CC(Cc1ccc(OCCCCOc2ccccc2)cc1)NCCC1CCCN1C (centres unmarked) [TCMDC-140017] | <16 | 0.095 µM | – | < 1560 nM | 40
CN(CCCCN)Cc1ccc(-c2ccc(Cl)cc2)cc1 [TCMDC-140123] | 10 | 0.41 µM | 0.413 | 3990 nM | 882

Structure (SMILES) | Ratio IC50 HepG2/IC50 P. falciparum [1] | IC50 [1, 3] | IC50 [1, 4] [µM] | IC50 (HepG2 cells) | IC50 [2] [nM]
CN(C)CCN(Cc1ccccc1-c1ccc(CNCCc2ccccc2)cc1)C(=O)c1ccccc1 [TCMDC-140532] | 10 | 0.78 µM | – | 7540 nM | 1700
CC(C)CNCc1cccc(-c2cccc(CN(CCCN3CCN(C)CC3)C(=O)/C=C/c3ccccc3)c2)c1 [TCMDC-140541] | 13 | 0.56 µM | 0.557 | 7470 nM | 926
CN1CCN(CCCN(Cc2cccc(-c3cccc(CNC4CCCC4)c3)c2)C(=O)/C=C/c2ccccc2)CC1 [TCMDC-140543] | 9 | 0.8 µM | 0.805 | 7170 nM | 777
CN1CCN(CCCN(Cc2cccc(-c3ccc(CNC4CCCC4)cc3)c2)C(=O)/C=C/c2ccccc2)CC1 [TCMDC-140544] | 9 | 0.74 µM | 0.735 | 6390 nM | 746
CC(C)CNCc1cccc(-c2cccc(CN(CCCN3CCN(C)CC3)C(=O)CCC3CCCC3)c2)c1 [TCMDC-140554] | 7.58 | 0.6 µM | – | 4550 nM | 624
O=C(c1cccs1)N(Cc1cccc(-c2ccc(CNC3CCCC3)cc2)c1)C1CCN(Cc2ccccc2)CC1 [TCMDC-140567] | 8 | 0.85 µM | 0.845 | 7100 nM | 1130
CN1CCN(CCCN(Cc2cccc(-c3ccc(CNCCc4ccccc4)cc3)c2)C(=O)c2cccs2)CC1 [TCMDC-140568] | 6 | 0.89 µM | – | 5600 nM | 716
CC(C)CNCc1cccc(-c2ccccc2CN(C(=O)NCCc2ccccc2)C2CCN(Cc3ccccc3)CC2)c1 [TCMDC-140608] | <1 | > 10 µM | – | 6600 nM | 1170
O=C(NCCc1ccccc1)N(Cc1cccc(-c2ccc(CNC3CCCC3)cc2)c1)C1CCN(Cc2ccccc2)CC1 [TCMDC-140618] | 5.66 | 1.31 µM | – | 7420 nM | 404
CN(C)CCN(Cc1ccccc1-c1ccc(CNCCc2ccccc2)cc1)C(=O)NC1CCCCC1 [TCMDC-140626] | 18 | 0.35 µM | – | 6400 nM | 906
CC(C)CNCc1ccc(-c2cccc(CN(C(=O)NC3CCCCC3)C3CCN(Cc4ccccc4)CC3)c2)cc1 [TCMDC-140628] | 1.09 | 1.66 µM | – | 1810 nM | 805
CN(C)CCCOc1ccc(CN2CCC(c3c[nH]c4ccc(NCC5CCCCC5)cc34)CC2)cc1 [TCMDC-140737] | 14 | 0.5 µM | – | 6800 nM | 678
CN1CCC(N(Cc2ccc(-c3ccc(Cl)cc3)cc2)C(=O)Cn2c(CCc3cccc(F)c3F)cc(=O)c3ccccc32)CC1 [TCMDC-141357] | 2 | 3.43 µM | 3.43 | 6700 nM | 865
ON=C1CCc2cc(-c3cc(-c4ccc(OC5CCNCC5)cc4)oc3-c3ccncc3)ccc21 [TCMDC-141381] | 28 | 0.27 µM | – | 7500 nM | 157
O=C(C1CC1c1ccccc1)N(Cc1ccc(-c2ccc(CNCCc3ccccc3)cc2)cc1)C1CCNCC1 (centres unmarked) [TCMDC-141443] | 17 | 0.39 µM | 0.385 | 6700 nM | 1110
O=C(CC1CCCC1)N(Cc1ccc(-c2ccc(CNC3Cc4ccccc4C3)cc2)cc1)CC1CCCCN1 (centres unmarked) [TCMDC-141446] | 6.45 | 1 µM | 1 | 6470 nM | 1060
